ChEMBL document CHEMBL1125036, “Antitumor properties of tetrahydrobenz[a]anthraquinone derivatives” (1990)

Tests used:
WiDr = assay: Anticancer activity against human colon carcinoma WiDr cells; assay type: functional
L1210 = assay: Anticancer activity against murine leukemia L1210 cells; assay type: functional, Mus musculus
MCF7 = assay: Anticancer activity against human breast carcinoma MCF-7 cells; assay type: functional
A121 = assay: Anticancer activity against human ovarian carcinoma A121 cells; assay type: functional
NCI-H125 = assay: Anticancer activity against human nonsmall cell lung carcinoma (H125 cells); assay type: functional

## COc1cc2c(c3c1C(=O)c1c(NCCNCCO)ccc(NCCNCCO)c1C3=O)CCCC2
WiDr
  Activity: 960 nM
L1210
  Activity: 2 µM
MCF7
  Activity: 1000 nM
A121
  Activity: 100 nM
NCI-H125
  Activity: 220 nM
